Measured values taken from patent US11793782B2, “Therapeutic agents for neurodegenerative diseases” (priority 2017, dated 2023).

System: restless leg syndrome patients
Assay: Case studies, restless legs syndrome (IRLS score)
Assay type: in vivo, human
Parameters: key to IRLS: IRLS 0 (no symptoms) to 40; >30 very severe, ≤10 mild
Source text: A widely reported rating scale known as the International Restless Leg Syndrome Study Group Rating Scale (“IRLS”) was developed by the International Restless Legs Syndrome Study Group (“IRLSSG”) (http://www.irlssg.org/) (Walters et al., Validation of the International Restless Legs Syndrome Study Group rating scale for restless legs syndrome. Sleep medicine. 2003 Apr. 1; 4(2):121-32). The IRLS is a 10-item scale with scores ranging from 0 (no symptoms) to 40. Scores >30 are considered very severe, severe (Score 21-30), moderate (scores 11-20) and ≤10, mild. Use of the scale is common for clinical assessment, research and therapeutic trials with RLS. In one embodiment, treatment with leucine, acetyl-leucine, or a pharmaceutically acceptable salt thereof as described herein decreases the subject's International Restless Leg Syndrome Study Group Rating Scale (“IRLS”) compared to a baseline. In one embodiment, the IRLS is reduced compared to baseline by at least 10%, at least 20%, at least 30%, at least 40%, or at least 50%. In one embodiment, the IRLS is reduced by at least 60%, at least 70%, at least 80%, at least 90%, or 100%.
The patient in this case study was a person showing proximal weakness of the so lower limb. […] Upon consultation, they reported no sensory symptoms but complained of a restless leg syndrome at night and during resting periods of the day, occurring over the course of the last two years. Pre-treatment with dopamine agonist were without symptom relief. Serum creatine kinase activity was only mildly elevated at up to 400 IU/L. The patient was evaluated using the RLS diagnostic index (RLS-DI) (see Walters et al., Sleep Med 2003; 4(2):121-132;). The patient's International Restless Legs Syndrome Rating Scale score (IRLS) was 36, and thus a severe RLS was diagnosed. […] Re-introduction of the treatment re-declined the score to 8 after 2 weeks. Continuation of treatment over more than 22 weeks stabilized the IRLS score at 8.
The patient in this case study was a person showing proximal weakness of the lower limb. […] Upon consultation, they reported no sensory symptoms but complained of a restless leg syndrome at night and during resting periods of the day, occurring over the course of the last eight years. […] Serum creatine kinase activity was mildly elevated at 300 IU/L. Iron measurements and all additional lab investigations were normal. The patient was evaluated using the RLS-DI and the patient's IRLS was 32, and thus a moderate to severe RLS was diagnosed. […] Continuation of treatment over more than 28 weeks stabilized the IRLS score at 8.
The patient in this case study was a person showing mild proximal weakness of the upper and lower limbs slowly progressive. The patient had been diagnosed (genetically confirmed) with McArdle myopathy about 16 years ago. Upon consultation, they reported no sensory symptoms but complained about a severe fatigue and reduced stamina. The patient further reported a restless leg syndrome at night and during resting periods of the day, occurring over the course of the last 12 years. […] Serum creatine kinase activity was mildly elevated at 200 IU/L; however, the patient had 5 episodes of rhabdomyolysis during the past 20 years. Repeated iron measurements and all additional lab investigations were normal. The patient was evaluated using the RLS-DI and the patient's IRLS was 34, and thus a severe RLS was diagnosed. […] Continuation of treatment over more than 30 weeks stabilized the IRLS score at 10. In addition, the patient's fatigue declined (Fatigue Severit Scale: 9 (minimum) to 63 (maximum)) from 53 to 28.

**Q.** What does the source list for `CC(=O)NC(CC(C)C)C(=O)O` (racemic) [acetyl-DL-leucine]?
**A.** IRLS (RLS Patient 1 (myotonic dystrophy type 2), 5 g per day, within 14 days, before 36): 26; IRLS (RLS Patient 1, 2 weeks after re-introduction of the treatment): 8; IRLS (RLS Patient 1, after another 5 weeks): 9; IRLS (RLS Patient 1, continuation of treatment over more than 22 weeks): 8; IRLS (RLS Patient 1, interruption of 4 weeks after week 12 of the treatment): 28; IRLS (RLS Patient 2 (myotonic dystrophy type 2), 5 g per day, within 14 days, before 32): 22; IRLS (RLS Patient 2, after another 5 weeks): 7; IRLS (RLS Patient 2, continuation of treatment over more than 28 weeks): 8; IRLS (RLS Patient 3 (McArdle myopathy), 5 g per day, within 21 days, before 34): 20; IRLS (RLS Patient 3, after another 10 weeks): 10; IRLS (RLS Patient 3, continuation of treatment over more than 30 weeks): 10; Fatigue Severit Scale (RLS Patient 3, scale 9 (minimum) to 63 (maximum), declined from 53): 28
